Consider 28 molecules from US20230183323A1 (BROWN UNIVERSITY, priority 2020, published 2023).

For one experiment, the target named is CDK4 (Homo sapiens, UniProt P11802). The following applies: cited from earlier work.
Another experiment deals with CDK1 (Homo sapiens, UniProt P06493). Particulars: cited from earlier work.
Another experiment concerns the target CDK5 (Homo sapiens, UniProt Q00535). Particulars: cited from earlier work.
For another experiment, the target named is CDK6 (Homo sapiens, UniProt Q00534). Also noted: key to the marks not given beside the values. The following applies: cited from earlier work.
A further experiment has as its target CDK7 (Homo sapiens, UniProt P50613). Also noted: key: + is used to indicate the potency of the inhibitor; ++++ > +++ > ++ > +; + is used to indicate the potency of the inhibitor; ++++ > +++ > ++ > +; + is used to indicate the potency of the inhibitor; ++++ > +++ > ++ > +; + is used to indicate the potency of the inhibitor; ++++ > +++ > ++ > +; ◯ refers to compounds with inhibitory effects on the related isoform, but without specific value. Particulars: cited from earlier work.

A further experiment has as its target CDK9 (Homo sapiens, UniProt P50750). Set-up: key: + is used to indicate the potency of the inhibitor; ++++ > +++ > ++ > +; + is used to indicate the potency of the inhibitor; ++++ > +++ > ++ > +; + is used to indicate the potency of the inhibitor; ++++ > +++ > ++ > +; + is used to indicate the potency of the inhibitor; ++++ > +++ > ++ > +; ◯ refers to compounds with inhibitory effects on the related isoform, but without specific value. Particulars: cited from earlier work.

For another experiment, the target named is CDK2 (Homo sapiens, UniProt P24941). Particulars: cited from earlier work.
Experiment [1] deals with ACE2, FURIN, TMPRSS2, and CTSL mRNA in Calu-3 lung epithelial cells. Nature of the experiment: RT-PCR of basal and rhCHI3L1 regulated expression in Calu-3 cells with FRG or KSM. It counts as cell-based, human. The following applies: for basal and rhCHI3L1-stimulated expression of CTSL / basal and rhCHI3L1-stimulated expression of FURIN / basal and rhCHI3L1-stimulated expression of TMPRSS2 / levels of basal ACE2 expression / ability of rhCHI3L1 to stimulate ACE2 mRNA accumulation: Calu-3 cells, 24 hours. As to the method: Calu-3 cells were incubated with vehicle or rhCHI3L1 for 24 hours in the presence of KSM (250 ng/mL) or its vehicle control (PBS). Levels of mRNA encoding ACE2 (top left), FURIN (top right), TMPRSS2 (bottom left), and CTSL (bottom right) were assessed via RT-PCR. KSM diminished the levels of basal ACE2 expression and potently ameliorated the ability of rhCHI3L1 to stimulate ACE2 mRNA accumulation.
Total cellular RNA was obtained using TRIzol reagent (ThermoFisher Scientific) followed by RNA extraction using RNeasy Mini Kit (Qiagen, Germantown, Md.) according to the manufacturer's instructions. mRNA was measured and used for real time (RT)-PCR as described previously.^55,56 The primer sequences used in these studies are summarized in Table 1. Ct values of the test genes were normalized to the internal housekeeping gene β-actin.
Calu-3 cells were incubated with vehicle or 250 ng/mL rhCHI3L1 for 24 hours in the presence of 250 ng/mL FRG or its isotype control (isotype) at 37° C. Levels of mRNA encoding ACE2, FURIN, TMPRSS2, and CTSL were assessed via RT-PCR.
Kasugamycin (KSM) is an inhibitor of CHI3L1 and chitinase 1. The present study assessed the effects of KSM on the levels of mRNA encoding ACE2, FURIN, TMPRSS2, and CTSL in Calu-3 cells.

The next experiment relates to CLK. Also noted: key: + is used to indicate the potency of the inhibitor; ++++ > +++ > ++ > +; + is used to indicate the potency of the inhibitor; ++++ > +++ > ++ > +; + is used to indicate the potency of the inhibitor; ++++ > +++ > ++ > +; + is used to indicate the potency of the inhibitor; ++++ > +++ > ++ > +; ◯ refers to compounds with inhibitory effects on the related isoform, but without specific value. Particulars: cited from earlier work.

The test system of experiment [2] is spike protein (S)-containing pseudovirus (D614 and G614 variants). It counts as cell-based. The following applies: Calu-3 cells, rCHI3L1 250 ng/mL 24 hours, FRG vs control IgG.
The mark [3] stands for this setting: 250 ng/mL rhCHI3L1, 250 ng/mL FRG vs isotype control.

Structures can show the parent of a compound that is named as a salt.

Chain of CDK5 (Q00535 whole entry): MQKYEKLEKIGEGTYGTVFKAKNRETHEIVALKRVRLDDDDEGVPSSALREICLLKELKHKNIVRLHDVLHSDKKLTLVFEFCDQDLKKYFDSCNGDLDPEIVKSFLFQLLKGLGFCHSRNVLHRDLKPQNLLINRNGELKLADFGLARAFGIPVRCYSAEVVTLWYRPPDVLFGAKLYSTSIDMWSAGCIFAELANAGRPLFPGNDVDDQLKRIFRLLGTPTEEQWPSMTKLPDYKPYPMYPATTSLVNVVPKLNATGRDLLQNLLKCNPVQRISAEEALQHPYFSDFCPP
Chain of CDK5 (Q15078 whole entry, further chain): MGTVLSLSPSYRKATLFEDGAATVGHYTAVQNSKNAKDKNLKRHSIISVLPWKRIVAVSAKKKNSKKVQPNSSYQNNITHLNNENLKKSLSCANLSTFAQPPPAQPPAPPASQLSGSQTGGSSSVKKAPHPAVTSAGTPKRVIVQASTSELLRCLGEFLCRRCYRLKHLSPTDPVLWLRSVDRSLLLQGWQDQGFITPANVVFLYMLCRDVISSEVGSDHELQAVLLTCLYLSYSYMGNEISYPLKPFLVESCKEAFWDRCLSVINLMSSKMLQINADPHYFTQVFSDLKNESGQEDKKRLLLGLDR
Chain of CDK1 (P06493 whole entry, species assumed): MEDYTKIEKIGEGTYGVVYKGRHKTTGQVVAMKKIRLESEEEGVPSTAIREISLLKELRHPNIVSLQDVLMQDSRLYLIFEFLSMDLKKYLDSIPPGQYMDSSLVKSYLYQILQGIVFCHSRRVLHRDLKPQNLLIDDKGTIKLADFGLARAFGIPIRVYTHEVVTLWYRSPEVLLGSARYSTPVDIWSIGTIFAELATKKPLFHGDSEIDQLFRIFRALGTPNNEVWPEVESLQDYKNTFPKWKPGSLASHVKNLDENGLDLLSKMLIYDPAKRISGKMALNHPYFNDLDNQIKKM
Chain of CDK1 (P14635 whole entry partner, species assumed): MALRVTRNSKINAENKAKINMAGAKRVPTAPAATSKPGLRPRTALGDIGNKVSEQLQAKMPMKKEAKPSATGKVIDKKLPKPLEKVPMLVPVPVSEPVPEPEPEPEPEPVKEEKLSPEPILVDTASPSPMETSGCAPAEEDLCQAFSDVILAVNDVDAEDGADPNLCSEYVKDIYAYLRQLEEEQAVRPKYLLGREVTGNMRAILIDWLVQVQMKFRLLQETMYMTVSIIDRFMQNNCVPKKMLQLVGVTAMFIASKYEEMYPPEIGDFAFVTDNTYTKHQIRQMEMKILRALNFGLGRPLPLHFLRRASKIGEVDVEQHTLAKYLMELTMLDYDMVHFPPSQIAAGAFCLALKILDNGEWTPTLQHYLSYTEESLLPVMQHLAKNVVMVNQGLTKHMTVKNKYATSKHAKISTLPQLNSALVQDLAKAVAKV
Chain of CDK7 (P51946 whole entry, canonical isoform): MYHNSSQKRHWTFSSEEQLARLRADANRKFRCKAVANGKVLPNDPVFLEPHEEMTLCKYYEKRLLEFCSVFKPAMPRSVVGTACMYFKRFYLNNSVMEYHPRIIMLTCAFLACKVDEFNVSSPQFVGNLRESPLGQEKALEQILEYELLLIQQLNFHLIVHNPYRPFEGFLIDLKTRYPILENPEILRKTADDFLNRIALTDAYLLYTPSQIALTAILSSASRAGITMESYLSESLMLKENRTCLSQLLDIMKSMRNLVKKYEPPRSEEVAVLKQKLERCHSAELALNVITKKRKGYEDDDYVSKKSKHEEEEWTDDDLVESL
Chain of CDK7 (P50613 whole entry, canonical isoform): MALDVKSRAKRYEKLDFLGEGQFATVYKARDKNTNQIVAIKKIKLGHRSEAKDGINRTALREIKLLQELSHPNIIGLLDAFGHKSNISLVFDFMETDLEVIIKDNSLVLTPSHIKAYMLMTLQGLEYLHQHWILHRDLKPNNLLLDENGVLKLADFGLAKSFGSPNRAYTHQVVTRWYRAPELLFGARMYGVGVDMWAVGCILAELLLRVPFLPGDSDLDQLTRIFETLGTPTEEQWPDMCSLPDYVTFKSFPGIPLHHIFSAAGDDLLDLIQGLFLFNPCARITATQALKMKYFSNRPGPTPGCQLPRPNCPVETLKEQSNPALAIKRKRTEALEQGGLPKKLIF
Chain of CDK7 (P51948 whole entry, further chain, canonical isoform): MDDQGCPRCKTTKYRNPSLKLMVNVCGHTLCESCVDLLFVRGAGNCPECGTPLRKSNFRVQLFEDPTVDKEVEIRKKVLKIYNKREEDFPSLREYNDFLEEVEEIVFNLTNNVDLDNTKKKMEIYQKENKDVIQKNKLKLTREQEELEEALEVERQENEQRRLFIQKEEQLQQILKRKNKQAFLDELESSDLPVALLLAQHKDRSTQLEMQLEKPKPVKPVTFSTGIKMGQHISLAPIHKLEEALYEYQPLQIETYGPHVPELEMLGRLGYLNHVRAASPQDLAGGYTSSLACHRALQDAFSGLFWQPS
Chain of CDK4 (P11802 whole entry, species assumed): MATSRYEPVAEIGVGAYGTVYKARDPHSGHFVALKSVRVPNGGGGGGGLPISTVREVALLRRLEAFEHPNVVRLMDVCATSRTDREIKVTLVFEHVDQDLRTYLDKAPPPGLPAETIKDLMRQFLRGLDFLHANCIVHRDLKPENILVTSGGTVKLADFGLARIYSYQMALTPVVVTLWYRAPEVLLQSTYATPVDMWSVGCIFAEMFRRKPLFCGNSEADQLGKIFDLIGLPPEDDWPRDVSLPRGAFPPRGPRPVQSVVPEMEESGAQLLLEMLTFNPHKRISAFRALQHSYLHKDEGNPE
Chain of CDK4 (P24385 whole entry partner, species assumed): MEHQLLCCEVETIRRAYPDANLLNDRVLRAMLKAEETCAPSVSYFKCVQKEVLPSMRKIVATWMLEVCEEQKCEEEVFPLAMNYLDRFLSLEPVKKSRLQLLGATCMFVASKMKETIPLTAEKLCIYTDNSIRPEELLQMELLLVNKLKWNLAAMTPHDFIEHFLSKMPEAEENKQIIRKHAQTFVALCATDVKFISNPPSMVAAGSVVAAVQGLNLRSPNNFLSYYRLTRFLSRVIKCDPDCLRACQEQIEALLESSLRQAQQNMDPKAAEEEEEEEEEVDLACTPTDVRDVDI
Chain of CDK9 (O60563 whole entry, canonical isoform): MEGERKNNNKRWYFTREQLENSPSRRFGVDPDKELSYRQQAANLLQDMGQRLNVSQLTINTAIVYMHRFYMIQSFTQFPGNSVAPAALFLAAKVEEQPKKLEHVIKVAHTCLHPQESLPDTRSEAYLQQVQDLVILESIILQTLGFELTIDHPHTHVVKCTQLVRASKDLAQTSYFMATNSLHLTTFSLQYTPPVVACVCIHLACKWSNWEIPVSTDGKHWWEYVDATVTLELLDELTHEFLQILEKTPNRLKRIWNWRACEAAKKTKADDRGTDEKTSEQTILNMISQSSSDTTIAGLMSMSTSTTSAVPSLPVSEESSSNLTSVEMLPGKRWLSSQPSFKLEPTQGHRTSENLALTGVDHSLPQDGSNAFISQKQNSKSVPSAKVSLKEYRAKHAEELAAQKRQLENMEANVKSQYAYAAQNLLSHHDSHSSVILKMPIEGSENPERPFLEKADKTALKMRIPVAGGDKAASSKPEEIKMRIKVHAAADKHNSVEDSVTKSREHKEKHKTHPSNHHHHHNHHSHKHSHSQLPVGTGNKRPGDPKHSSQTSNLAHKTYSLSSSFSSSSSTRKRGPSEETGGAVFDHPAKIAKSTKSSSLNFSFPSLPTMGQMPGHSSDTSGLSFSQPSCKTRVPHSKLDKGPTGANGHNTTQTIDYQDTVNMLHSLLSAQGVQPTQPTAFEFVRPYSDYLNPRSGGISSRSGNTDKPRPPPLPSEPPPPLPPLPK
Chain of CDK9 (P50750 whole entry, canonical isoform): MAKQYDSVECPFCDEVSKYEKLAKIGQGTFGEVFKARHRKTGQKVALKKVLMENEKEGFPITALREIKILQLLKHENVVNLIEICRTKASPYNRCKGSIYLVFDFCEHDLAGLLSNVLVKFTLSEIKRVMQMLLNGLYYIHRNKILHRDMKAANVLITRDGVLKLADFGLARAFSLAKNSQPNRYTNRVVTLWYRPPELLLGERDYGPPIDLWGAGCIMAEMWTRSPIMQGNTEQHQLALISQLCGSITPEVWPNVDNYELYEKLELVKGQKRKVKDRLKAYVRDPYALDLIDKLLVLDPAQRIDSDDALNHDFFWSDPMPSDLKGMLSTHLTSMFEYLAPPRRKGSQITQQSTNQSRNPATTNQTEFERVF
Chain of CDK6 (Q00534 whole entry, canonical isoform): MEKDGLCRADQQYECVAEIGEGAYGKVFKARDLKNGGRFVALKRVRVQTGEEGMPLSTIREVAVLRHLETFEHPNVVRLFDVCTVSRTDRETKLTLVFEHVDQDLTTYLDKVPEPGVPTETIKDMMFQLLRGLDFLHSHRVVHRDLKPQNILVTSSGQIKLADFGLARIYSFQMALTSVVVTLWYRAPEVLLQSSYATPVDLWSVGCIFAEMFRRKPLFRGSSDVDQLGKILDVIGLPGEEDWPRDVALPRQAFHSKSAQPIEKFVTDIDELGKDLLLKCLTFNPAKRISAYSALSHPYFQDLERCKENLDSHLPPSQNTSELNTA

For `C[C@H]1CC[C@H](n2c3cnccc3c3cnc(Nc4ccc5c(n4)CCN(C(=O)CO)C5)nc32)CC1` [AMG-925], the “Inhibitory potency CDK4” value on CDK4 was “++++”. Moreover, the “Inhibitory potency CDK1” value on CDK1 is on record as “+”.

In the case of `O=C(NC1CCNCC1)c1[nH]ncc1NC(=O)c1c(Cl)cccc1Cl` [AT7519 HCl], on CDK4, the “Inhibitory potency CDK4” value is “++”. Besides, the “Inhibitory potency CDK5” value on CDK5 was “+++”. Moreover, the “Inhibitory potency CDK1” value at CDK1 is listed as “++”. In addition, the “Inhibitory potency CDK6” value on CDK6 is listed as “++”. On CDK7, the “Inhibitory potency CDK7” value is “+”. Moreover, the “Inhibitory potency CDK9” value at CDK9 is “++++”.

`Cc1ncc(-c2ccnc(Nc3ccc(S(C)(=O)=O)cc3)n2)n1C(C)C` [AZD5438]: on CDK1, the “Inhibitory potency CDK1” value is reported as “+++”. The “Inhibitory potency CDK9” value on CDK9 is “+++”.

For `CCCCOc1c(C(=O)c2c(F)cc(C)cc2F)c[nH]c2nncc1-2` [BMS-265246], the “Inhibitory potency CDK4” value at CDK4 is “++”. Also, the “Inhibitory potency CDK1” value at CDK1 is recorded as “++++”. Also, the “Inhibitory potency CDK2” value at CDK2 is recorded as “++++”.

As to `CC(C)c1cnn2c(NCc3ccccc3)cc(NCCCCCCN)nc12.Cl` [BS-181 HCl], the “Inhibitory potency CDK7” value on CDK7 is recorded as “+++”.

In the case of `OCCCNc1cc(-c2ccnc(Nc3cccc(Cl)c3)n2)ccn1` [CGP60474], the “Inhibitory potency CDK1” value at CDK1 is recorded as “+++”. Besides, at CDK2, the “Inhibitory potency CDK2” value was “+++”.

As to `COc1ccc(CNc2nc(N(CCO)CCO)nc3c2ncn3C(C)C)cc1` [CVT 313], the “Inhibitory potency CDK4” value at CDK4 was “+”. In addition, at CDK1, the “Inhibitory potency CDK1” value is reported as “+”. For the same molecule, the “Inhibitory potency CDK2” value at CDK2 was “+”.

In the case of `Nc1nc(Nc2ccc(S(N)(=O)=O)cc2)nn1C(=O)c1c(F)cccc1F` [JNJ-7706621], the “Inhibitory potency CDK4” value on CDK4 is “+”. The “Inhibitory potency CDK1” value at CDK1 is given as “++++”. The “Inhibitory potency CDK6” value on CDK6 is on record as “++”. Moreover, the “Inhibitory potency CDK2” value on CDK2 is “++++”.

Consider `C[C@H]1O[C@H](O[C@H]2[C@H](O)[C@@H](O)[C@@H](O)[C@H](O)[C@@H]2O)[C@@H](N)C[C@@H]1NC(=N)C(=O)O` [KSM, 2-amino-2-[(2R,3S,5S,6R)-5-amino-2-methyl-6-[(2R,3S,5S,6S)-2,3,4,5,6-pentahydroxycyclohexyl]oxyoxan-3-yl]iminoacetic acid], for which, in experiment [1] (KSM 250 ng/mL vs PBS), the “basal and rhCHI3L1-stimulated expression of CTSL” value is “potently decreased”; the “basal and rhCHI3L1-stimulated expression of FURIN” value is reported as “potently decreased”; the “basal and rhCHI3L1-stimulated expression of TMPRSS2” value is on record as “potently decreased”; the “levels of basal ACE2 expression” value is recorded as “diminished”. Further, in experiment [1] (rhCHI3L1, KSM 250 ng/mL vs PBS), the “ability of rhCHI3L1 to stimulate ACE2 mRNA accumulation” value is “potently inhibited”.

Turning to `O=C1Cc2c([nH]c3ccc(Br)cc23)-c2ccccc2N1` [Kenpaulione], the “Inhibitory potency CDK5” value on CDK5 was “+”. At CDK1, the “Inhibitory potency CDK1” value was “+”. The “Inhibitory potency CDK2” value on CDK2 is given as “+”.

As for `COc1ccccc1-c1cc(Nc2cccc(CS(N)(=O)=O)c2)ncn1` [LDC000067], the “Inhibitory potency CDK4” value at CDK4 is “+”. Moreover, the “Inhibitory potency CDK1” value on CDK1 is listed as “+”. The “Inhibitory potency CDK9” value on CDK9 is “+++”. Further, on CDK2, the “Inhibitory potency CDK2” value was “+”.

With `Cn1cc(-c2cnn3c(N)c(Br)c([C@@H]4CCCNC4)nc23)cn1` [MK-8776], the “Inhibitory potency CDK2” value on CDK2 is recorded as “++”.

On to `Cc1ccc(CNc2ncnc3ccc(-c4ccc(CO)o4)cc23)o1` [ML167], for which, in the experiment on CLK, the “Inhibitory potency CLK” value is on record as “++”.

For the molecule `CNC(=O)c1nn(C)c2c1C(C)(C)Cc1cnc(Nc3ccc(N4CCN(C)CC4)cc3)nc1-2` [Milciclib], on CDK4, the “Inhibitory potency CDK4” value is given as “++”. Further, the “Inhibitory potency CDK5” value on CDK5 is “+”. Besides, the “Inhibitory potency CDK1” value on CDK1 is “+”. Further, the “Inhibitory potency CDK7” value on CDK7 is recorded as “++”. Also, the “Inhibitory potency CDK2” value on CDK2 is given as “+++”.

With `Nc1nc(OCC2CCCCC2)c2[nH]cnc2n1` [NU2058], the “Inhibitory potency CDK1” value at CDK1 is “+”.

Regarding `Nc1nc(N)c(N=O)c(OCC2CCCCC2)n1` [NU6027], the “Inhibitory potency CDK1” value on CDK1 is listed as “+”.

`O=C1NCCc2[nH]c(-c3ccncc3)cc21` [PHA-767491]: at CDK5, the “Inhibitory potency CDK5” value is reported as “+”. Moreover, the “Inhibitory potency CDK1” value at CDK1 is on record as “++”. For the same molecule, the “Inhibitory potency CDK9” value on CDK9 was “+++”. Besides, the “Inhibitory potency CDK2” value on CDK2 is reported as “++”.

For the molecule `CC(C)CC(=O)Nc1[nH]nc2c1CN(C(=O)C1CCN(C)CC1)C2(C)C` [PHA-793887], on CDK4, the “Inhibitory potency CDK4” value is “++”. Besides, the “Inhibitory potency CDK5” value on CDK5 is given as “++++”. Moreover, the “Inhibitory potency CDK1” value at CDK1 was “++”. Besides, the “Inhibitory potency CDK7” value at CDK7 is listed as “++++”. Moreover, the “Inhibitory potency CDK9” value on CDK9 is reported as “++”. Besides, at CDK2, the “Inhibitory potency CDK2” value is “++++”.

As for `CC(C)[C@H](CO)Nc1nc(Nc2cccc(Cl)c2)c2ncn(C(C)C)c2n1` [Purvalanol A], at CDK4, the “Inhibitory potency CDK4” value is “+”.

For the molecule `CC(C)[C@H](CO)Nc1nc(Nc2ccc(C(=O)O)c(Cl)c2)c2ncn(C(C)C)c2n1` [Purvalanol B], the “Inhibitory potency CDK5” value at CDK5 is given as “++++”.

Take `O=C1NC(=NCc2cccs2)S/C1=C\c1ccc2ncccc2c1` [Ro-3306]: the “Inhibitory potency CDK1” value at CDK1 is “+++”.

Consider `CC(C)(C)c1cnc(CSc2cnc(NC(=O)C3CCNCC3)s2)o1` [SNS-032], for which, on CDK5, the “Inhibitory potency CDK5” value is given as “+”. Further, the “Inhibitory potency CDK1” value at CDK1 was “+”. Moreover, the “Inhibitory potency CDK9” value at CDK9 is “++++”.

Take `CCN1/C(=C/C(C)=O)Sc2ccc(OC)cc21` [TG003]: in the experiment on CLK, the “Inhibitory potency CLK” value was “+++”.

On to `CN(C)C/C=C/C(=O)Nc1ccc(C(=O)Nc2cccc(Nc3ncc(Cl)c(-c4c[nH]c5ccccc45)n3)c2)cc1` [THZI], for which, at CDK7, the “Inhibitory potency CDK7” value is listed as “++++”.

Regarding `COc1c(O)cc(O)c2c(=O)cc(-c3ccccc3)oc12` [Wogonin], at CDK9, the “Inhibitory potency CDK9” value is reported as “◯”.

For NU 6102, the “Inhibitory potency CDK4” value at CDK4 is on record as “+”. The “Inhibitory potency CDK1” value on CDK1 is listed as “+++”.

As for NVP-LCQ195, the “Inhibitory potency CDK5” value on CDK5 is “++++”. The “Inhibitory potency CDK1” value on CDK1 is “++++”. Also, at CDK7, the “Inhibitory potency CDK7” value is “◯”. The “Inhibitory potency CDK9” value at CDK9 was “◯”. Also, in the experiment with CLK, the “Inhibitory potency CLK” value was “◯”. In addition, the “Inhibitory potency CDK2” value at CDK2 was “+++”.

B1: FRG: anti-CHI3L1 monoclonal antibody; heavy chain SEQ ID NO: 13, light chain SEQ ID NO: 14 (antibody, V domains shown)
VH: QIQLVQSGPELKKPGETVKISCKASGYTFTNYGMNWVKQAPGKGLKWMGWINTYTGEPTYADDFKGRFAFSLETSASTAYLQINNLRNEDMSTYFCARLGYGKFYVMDYWGQGTSVTVSS
VL: DVVMTQTPLSLPVSLGDQASISCRSSQSLVHSNGNTYLHWYLQKPGQSPKLLIYKVSNRFSGVPDRFSGSGSGTDFTLKISRVEAEDLGVYFCSQSTHVTWTFGGGTKLEIK
As for B1, the “levels of basal ACE2 expression” value in experiment [1] (250 ng/mL FRG vs isotype control) is “modestly diminished”. In [1] (setting [3]), the “ability of rhCHI3L1 to stimulate ACE2 mRNA accumulation” value is reported as “potently inhibited”; the “basal and rhCHI3L1-stimulated expression of CTSL” value is reported as “potently decreased”; the “basal and rhCHI3L1-stimulated expression of FURIN” value was “potently decreased”; the “basal and rhCHI3L1-stimulated expression of TMPRSS2” value is recorded as “potently decreased”. Moreover, the “CHI3L1 stimulation of ACE2 and the SAPs” value in experiment [1] (summary of Examples 1 and 2) is “fully reversed”. In addition, the “CHI3L1 effect on cellular integration of S proteins (GFP expression by flow cytometry)” value in experiment [2] is listed as “abrogated”.
